pIC50: −log10 of the molar value. Where a name gives a salt, the structure may show the parent alone.
Legend:
Format in all cases: biochemical
cathepsin L = target: T1, cathepsin L (Rattus norvegicus, UniProt P07154); test: Determination of inhibition rate against cathepsin L; conditions: for B/L: IC50 against cathepsin B divided by IC50 against cathepsin L; for pIC50: cathepsin L from rat liver, substrate Z-Phe-Arg-MCA, pH 5.5, 30° C, 10 minutes
T1 construct: extracted from a rat liver and completely purified; from tissue; host or cells: rat liver
T1 sequence (P07154 114-288 limits assumed): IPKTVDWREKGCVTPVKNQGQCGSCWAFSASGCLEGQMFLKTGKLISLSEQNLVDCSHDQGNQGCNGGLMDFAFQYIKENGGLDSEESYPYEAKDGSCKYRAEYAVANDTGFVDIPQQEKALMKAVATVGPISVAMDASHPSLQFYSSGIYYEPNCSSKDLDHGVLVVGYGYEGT
T1 sequence (P07154 291-334 limits assumed): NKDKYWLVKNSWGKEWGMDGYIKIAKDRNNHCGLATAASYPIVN
Protocol: (§1) Determination of inhibition rate against cathepsin L, B and H […]
(§2) Each cathepsin was diluted with a diluent (0.1% Brij 35) to adjust its concentration to 0.3 U (0.1 U: a concentration at which 1.0 nmol of MCA is released per minute at 37° C.). To 500 μl of this solution, were added 250 μl of an activator/buffer (340 mM sodium acetate, 60 mM acetic acid, 4 mM disodium EDTA; pH 5.5). After the mixture was incubated for 1 minute at 30° C., the sample solution of the predetermined concentration and […] of a substrate solution were added to conduct a reaction for 10 minutes.

cathepsin B = target: T2, cathepsin B (Rattus norvegicus, UniProt P00787); test: Determination of inhibition rate against cathepsin B; conditions: cathepsin B from rat liver; substrate Z-Arg-Arg-MCA; pH 5.5; 30° C; 10 minutes
T2 construct: extracted from a rat liver and completely purified; from tissue; host or cells: rat liver
T2 sequence (P00787 129-333 limits assumed): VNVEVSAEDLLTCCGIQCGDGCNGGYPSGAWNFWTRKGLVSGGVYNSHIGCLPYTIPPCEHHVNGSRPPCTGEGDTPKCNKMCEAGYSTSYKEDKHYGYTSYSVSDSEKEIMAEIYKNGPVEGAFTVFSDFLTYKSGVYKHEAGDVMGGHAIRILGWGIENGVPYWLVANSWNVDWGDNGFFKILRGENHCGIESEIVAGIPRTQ
T2 sequence (P00787 80-126 limits assumed): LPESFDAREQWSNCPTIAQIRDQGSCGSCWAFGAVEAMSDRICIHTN
Protocol: as §1, §2

cathepsin H = target: T3, cathepsin H (Homo sapiens, UniProt P09668); test: Determination of inhibition rate against cathepsin H; conditions: purified cathepsin H (Sigma Co.); substrate Arg-MCA; pH 5.5; 30° C; 10 minutes
T3 construct: purchased Sigma Co
T3 sequence (P09668 98-335): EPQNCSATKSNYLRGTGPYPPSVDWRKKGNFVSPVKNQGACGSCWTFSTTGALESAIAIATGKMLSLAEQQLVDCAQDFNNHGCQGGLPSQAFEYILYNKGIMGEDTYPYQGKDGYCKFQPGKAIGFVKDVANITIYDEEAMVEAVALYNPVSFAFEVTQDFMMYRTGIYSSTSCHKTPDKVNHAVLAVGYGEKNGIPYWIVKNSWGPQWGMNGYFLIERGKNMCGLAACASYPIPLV
Protocol: Determination of inhibition rate against cathepsin L, B and H
A purified product was purchased from Sigma Co. and used as cathepsin H, and as a substrate thereof, Arg-MCA was used.
as §2

Structure (SMILES) | B/L (cathepsin L) | pIC50 (cathepsin L) | pIC50 (cathepsin B) | pIC50 (cathepsin H)
NCCCC[C@H](NC(=O)[C@H]1O[C@@H]1C(=O)NCCc1ccccc1)C(=O)Nc1cccc2ccccc12 [Example 2, Nα-[L-3-trans-(2-phenylethylcarbamoyl)oxirane-2-carbonyl]-L-lysine-1-naphthylamide hydrochloride] | > 285 | 7.46 | < 5.00 | < 5.00
NCCCC[C@H](NC(=O)[C@H]1O[C@@H]1C(=O)N[C@@H](Cc1ccccc1)C(=O)NCc1ccccc1)C(=O)Nc1cccc2ccccc12 [Example 26, Nα-{L-3-trans-[(S)-1-benzylcarbamoyl-2-phenylethylcarbamoyl]oxirane-2-carbonyl}-L-lysine-1-naphthylamide hydrochloride] | 7500 | 9.40 | 5.52 | 5.49
CC(=O)NCCCC[C@H](NC(=O)[C@H]1O[C@@H]1C(=O)N[C@@H](Cc1ccccc1)C(=O)NCCc1ccccc1)C(=O)Nc1cccc2ccccc12 [Example 32, Nα-{L-3-trans-[(S)-1-(2-phenylethylcarbamoyl)-2-phenylethylcarbamoyl]oxirane-2-carbonyl}-Nε-acetyl-L-lysine-1-naphthylamide] | 17500 | 10.40 | 5.15 | 5.32

More lines, in order of rising pIC50 (cathepsin L), values ahead:

B/L (cathepsin L) | pIC50 (cathepsin L) | pIC50 (cathepsin B) | pIC50 (cathepsin H) | Structure (SMILES)
94.4 | 7.14 | 5.17 | 5.22 | NCCCC[C@H](NC(=O)[C@H]1O[C@@H]1C(=O)Nc1cccc2ccccc12)C(=O)Nc1cccc2ccccc12 [Example 30, Nα-[L-3-trans-(1-naphthylcarbamoyl)oxirane-2-carbonyl]-L-lysine-1-naphthylamide hydrochloride]
> 667 | 7.82 | < 5.00 | < 5.00 | NCCCC[C@H](NC(=O)[C@H]1O[C@@H]1C(=O)N[C@@H](Cc1ccccc1)C(N)=O)C(=O)Nc1cccc2ccccc12 [Example 14, Nα-{L-3-trans-[(S)-1-carbamoyl-2-phenylethylcarbamoyl]oxirane-2-carbonyl}-L-lysine-1-naphthylamide hydrochloride]
70000 | 10.52 | 5.68 | – | NCCCC[C@H](NC(=O)[C@H]1O[C@@H]1C(=O)N[C@@H](Cc1ccccc1)C(=O)NCCc1ccccc1)C(=O)Nc1cccc2ccccc12 [Example 24, Nα-{L-3-trans-[(S)-1-(2-phenylethylcarbamoyl)-2-phenylethylcarbamoyl]oxirane-2-carbonyl}-L-lysine-1-naphthylamide hydrochloride]
